The term IC50 denotes the concentration that gives 50% inhibition.

Results on 35 compounds are retold here after patent publication US10703746B2, “Mutant IDH1 inhibitors useful for treating cancer” (THE UNITED STATES OF AMERICA, AS REPRESENTED BY THE …, priority 2014, dated 2020).

The target in one test is IDH1 R132H (Homo sapiens, UniProt O75874, R132H). As to the kind of experiment: IDH1 R132H enzymatic assay (NADPH depletion coupled to diaphorase/resazurin). It is filed as biochemical. (Resazurin is reduced to fluorescent resorufin, in cell work by metabolically active cells.)
For another test, the target named is IDH1 R132C (Homo sapiens, UniProt O75874, R132C). As to the kind of experiment: IDH1 R132C enzymatic assay (NADPH depletion coupled to diaphorase/resazurin). It is filed as biochemical. The method in brief:
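NADPH depletion, read via diaphorase/resazurin coupling, after adding substrate at 0.6 mM α-KG and 0.012 mM NADPH. Beforehand, 0.00032 mg/mL enzyme sat with compound 30 min at room temperature in pH 6.5 potassium phosphate buffer with MgCl2, glycerol and BSA.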

[1] abbreviates: IDH1 R132H enzymatic inhibition, IC50 class.
[2] abbreviates: IDH1 R132C enzymatic inhibition, IC50 class.
Setting [3] is: enzymatic inhibition, IDH1 R132H.
[4] abbreviates: enzymatic inhibition, IDH1 R132C.

IDH1 R132C, sequence (O75874 whole entry R132C): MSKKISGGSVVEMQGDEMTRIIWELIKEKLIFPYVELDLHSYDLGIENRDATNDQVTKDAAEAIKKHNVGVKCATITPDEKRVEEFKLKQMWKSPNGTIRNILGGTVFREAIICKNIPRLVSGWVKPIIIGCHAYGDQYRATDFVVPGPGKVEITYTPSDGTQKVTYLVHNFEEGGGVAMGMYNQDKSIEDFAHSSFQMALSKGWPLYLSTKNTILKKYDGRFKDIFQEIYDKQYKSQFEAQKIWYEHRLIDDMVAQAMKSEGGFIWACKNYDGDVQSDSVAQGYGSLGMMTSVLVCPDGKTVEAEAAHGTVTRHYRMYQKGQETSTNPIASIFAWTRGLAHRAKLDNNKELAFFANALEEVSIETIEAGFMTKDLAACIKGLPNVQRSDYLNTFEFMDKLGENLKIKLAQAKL
IDH1 R132H, sequence (O75874 whole entry R132H): as the sequence (O75874 whole entry R132C) above, with C132H counted along it

In the case of `CCc1cccc(CC)c1-n1c(C)c(C(=O)N2CC(N)C2)cc(-c2nc(-c3ccc(Cl)cc3)cs2)c1=O` [Compound 139], the IC50 against IDH1 R132H (setting [1]) and at IDH1 R132C (setting [2]) was 1 to 5 µM throughout.
As for `CCc1cccc(CC)c1-n1c(C=C(C)C)c(C(=O)N2CCNCC2C(=O)O)cc(-c2nc(-c3ccc(Cl)cc3)cs2)c1=O` (stereo not shown) [Compound 410], the IC50 on IDH1 R132H (setting [3]) and on IDH1 R132C (setting [4]) was under 0.3 µM in each case.
As for `O=C1CCCc2c1cc(-c1nc(-c3ccc(Cl)cc3)cs1)c(=O)n2-c1cccnc1` [Compound 481], the IC50 at IDH1 R132H (setting [3]) and on IDH1 R132C (setting [4]) was over 20 µM in each case.
As for `CCc1cc(C)cc(CC)c1-n1c2c(cc(-c3nc(-c4ccc(Cl)cc4)cs3)c1=O)C(=O)CCC2` [Compound 531], the IC50 against IDH1 R132H (setting [3]) fell in the range of 5 to 20 µM; against IDH1 R132C (setting [4]), 1 to 5 µM.
As to `CCc1cccc(CC)c1-n1c(C(C)C)c(C(=O)N2CCNC(C(=O)OC)C2)cc(-c2nc(-c3ccc(Cl)cc3)cs2)c1=O` (stereo not shown) [Compound 31], the IC50 against IDH1 R132H (setting [1]) lay within 1 to 5 µM; at IDH1 R132C (setting [2]), 0.3 to 1 µM.
As to `CCc1cccc(C(=O)O)c1-n1c2c(cc(-c3nc(-c4ccc(Cl)cc4)cs3)c1=O)C(=O)CC(C)(C)C2` [Compound 58], the IC50 against IDH1 R132H (setting [1]) fell in the range of 0.3 to 1 µM; against IDH1 R132C (setting [2]), 1 to 5 µM.
With `CC(C)=Cc1c(C(=O)N2CCNCC2)cc(-c2nc(-c3ccc(Cl)cc3)cs2)c(=O)n1-c1cc(C)ccc1OC(C)C` [Compound 496], the IC50 against IDH1 R132H (setting [3]) and on IDH1 R132C (setting [4]) was under 0.3 µM in each case.
`CCc1cccc(CC)c1-n1c(C)c(C(=O)N2CCCCC2C(=O)O)cc(-c2nc(-c3ccc(Cl)cc3)cs2)c1=O` (stereo not shown) [Compound 67]: the IC50 lay in the range of 1 to 5 µM on IDH1 R132H (setting [1]) and 5 to 20 µM against IDH1 R132C (setting [2]).
For the compound `CCc1cccc(CC)c1-n1c(CC(C)C)c(C(=O)N2CCN[C@H](CO)C2)cc(-c2nc(-c3ccc(Cl)cc3)cs2)c1=O` [Compound 283], the IC50 is 0.3 to 1 µM at IDH1 R132H (setting [1]) and under 0.3 µM against IDH1 R132C (setting [2]).
For the compound `CCOc1ncc(C)cc1-n1c(C=C(C)C)c(C(=O)N2CCNCC2)cc(-c2nc(-c3ccc(C(F)F)cc3)cs2)c1=O` [Compound 562], the IC50 at IDH1 R132H (setting [3]) and on IDH1 R132C (setting [4]) was under 0.3 µM in each case.
Regarding `CCc1cccc(CC)c1-n1c(C)c(C(=O)N2CCC(C(=O)O)C2)cc(-c2nc(-c3ccc(Cl)cc3)cs2)c1=O` (stereo not shown) [Compound 36], the IC50 against IDH1 R132H (setting [1]) and against IDH1 R132C (setting [2]) was over 20 µM throughout.
Regarding `CCc1cccc(CC)c1-n1c(C(C)C)c(C(=O)N2CCNCC2)cc(-c2nc(-c3ccc(Cl)cc3)cs2)c1=O` [Compound 86], the IC50 against IDH1 R132H (setting [1]) is 0.3 to 1 µM; on IDH1 R132C (setting [2]) it was under 0.3 µM.
For `CCc1cccc(CC)c1-n1c(CC(C)C)c(C(=O)N2CCN[C@@H](C(=O)OC)C2)cc(-c2nc(-c3ccc(Cl)cc3)cs2)c1=O` [Compound 131], the IC50 was 1 to 5 µM on IDH1 R132H (setting [1]) and under 0.3 µM on IDH1 R132C (setting [2]).
On to `CCc1cccc(CC)c1-n1c(CC(C)C)c(C(=O)N2CCNCC2)cc(-c2nc(-c3ccc(Cl)cc3)c(C)s2)c1=O` [Compound 82], for which the half-inhibitory concentration (IC50) against IDH1 R132H (setting [1]) and on IDH1 R132C (setting [2]) was under 0.3 µM in each case.
Regarding `CCc1ncc(OC)cc1-n1c(C=C(C)C)c(C(=O)N2CCNCC2)cc(-c2nc(-c3ccc(C(F)(F)F)nc3)cs2)c1=O` [Compound 334], the IC50 lay within 0.3 to 1 µM at IDH1 R132H (setting [1]) and 1 to 5 µM at IDH1 R132C (setting [2]).
In the case of `CCc1cccc(CC)c1-n1c(C2CCCCC2)c(C(=O)N2CCNCC2)cc(-c2nc(-c3ccc(Cl)cc3)cs2)c1=O` [Compound 549], the IC50 on IDH1 R132H (setting [3]) was in the range of 1 to 5 µM; against IDH1 R132C (setting [4]), 0.3 to 1 µM.
For the compound `CCc1cccc(CC)c1-n1c2c(cc(-c3nc(-c4ccc(C)cn4)c(C)s3)c1=O)C(=O)CC(C)(C)C2` [Compound 292], the IC50 at IDH1 R132H (setting [1]) and against IDH1 R132C (setting [2]) was 1 to 5 µM in each case.
As for `CCc1cccc(CC)c1-n1c(C=C(C)C)c(C(=O)N2CCNCC2)cc(-c2ccn(-c3ccc(Cl)cc3)n2)c1=O` [Compound 349], the IC50 at IDH1 R132H (setting [1]) and against IDH1 R132C (setting [2]) was under 0.3 µM each time.
Consider `CCOc1ccccc1-n1c2c(cc(-c3nc(-c4ccc(Cl)cc4)cs3)c1=O)C(=O)CC(C)(C)C2` [Compound 212], for which the IC50 at IDH1 R132H (setting [1]) and against IDH1 R132C (setting [2]) was 0.3 to 1 µM each time.
For `CCc1cccc(CC)c1-n1c(CC(C)C)c(C(=O)N2CCNCC2)cc(-c2csc(-c3ccc(Cl)cc3)n2)c1=O` [Compound 505], the IC50 on IDH1 R132H (setting [3]) and on IDH1 R132C (setting [4]) was under 0.3 µM in each case.
Consider `CCc1ncc(OC)cc1-n1c(C=C(C)C)c(C(=O)N2CCNCC2)cc(-c2nc(-c3ccc(Cl)cc3)cs2)c1=O` [Compound 416], for which the IC50 against IDH1 R132H (setting [3]) and against IDH1 R132C (setting [4]) was under 0.3 µM in each case.
Take `COc1ccc(OC)c(-n2c3c(cc(-n4cc(-c5ccccc5)nn4)c2=O)C(=O)CC(C)(C)C3)c1` [Compound 261]: the IC50 on IDH1 R132H (setting [1]) and against IDH1 R132C (setting [2]) was 5 to 20 µM in each case.
Regarding `CC1(C)CC(=O)c2cc(-c3nc(-c4ccc(Cl)cc4)cs3)c(=O)n(-c3ccccc3O)c2C1` [Compound 199], the IC50 against IDH1 R132H (setting [1]) and on IDH1 R132C (setting [2]) was 5 to 20 µM throughout.
As for `CCc1cccc(CC)c1-n1c(CC2CCNC2)c(C(=O)N2CCNCC2)cc(-c2nc(-c3ccc(Cl)cc3)cs2)c1=O` (stereo not shown) [Compound 627], the IC50 against IDH1 R132H (setting [1]) and against IDH1 R132C (setting [2]) was 5 to 20 µM each time.
As to `Cc1noc(-n2c3c(cc(-c4nc(-c5ccc(Cl)cc5)cs4)c2=O)C(=O)CC(C)(C)C3)c1C` [Compound 277], the IC50 at IDH1 R132H (setting [1]) and at IDH1 R132C (setting [2]) was 1 to 5 µM each time.
Consider `COCc1ncc(Cl)cc1-n1c(C=C(C)C)c(C(=O)N2CCNCC2)cc(-c2nc(-c3ccc(C(F)(F)F)cc3)cs2)c1=O` [Compound 586], for which the IC50 against IDH1 R132H (setting [3]) and on IDH1 R132C (setting [4]) was under 0.3 µM throughout.
In the case of `CCOc1ccc(F)cc1-n1c(C=C(C)C)c(C(=O)N2CCNCC2)cc(-c2nc(-c3ccc(C(F)(F)F)nc3)cs2)c1=O` [Compound 477], the IC50 on IDH1 R132H (setting [3]) was under 0.3 µM; against IDH1 R132C (setting [4]), 0.3 to 1 µM.
As to `CCc1cccc(CC)c1-n1c(COC)c(C(=O)N2CCNCC2)cc(-c2nc(-c3ccc(Cl)cc3)cs2)c1=O` [Compound 275], the IC50 against IDH1 R132H (setting [1]) and at IDH1 R132C (setting [2]) was under 0.3 µM in each case.
As to `CCc1cccc(CC)c1-n1c(CC(C)C)c(C(=O)N2CCNC(C)(C)C2)cc(-c2nc(-c3ccc(Cl)cc3)cs2)c1=O` [Compound 70], the IC50 at IDH1 R132H (setting [1]) was 0.3 to 1 µM; against IDH1 R132C (setting [2]), under 0.3 µM.
For the compound `CCc1cccc(CC)c1-n1c(C=C(C)C)c(C(=O)N2CCNCC2)cc(-c2ccn(-c3ccc(C4CC4)cc3)n2)c1=O` [Compound 606], the IC50 at IDH1 R132H (setting [3]) and at IDH1 R132C (setting [4]) was under 0.3 µM in each case.
`CCc1cccc(CC)c1-n1c(CC(C)C)c(C(=O)N2CCNCC2)cc(-c2nc(-c3ccc(N4CCNCC4)cc3)c(C)s2)c1=O` [Compound 137]: the IC50 against IDH1 R132H (setting [1]) and at IDH1 R132C (setting [2]) was over 20 µM each time.
Regarding `COc1ccc(OC)c(-n2c3c(cc(-c4nc(-c5ccc(Cl)cc5)cs4)c2=O)CCC(C)(C)C3)c1` [Compound 73], the IC50 against IDH1 R132H (setting [1]) and against IDH1 R132C (setting [2]) was 1 to 5 µM in each case.
As for `Cc1[nH]c(=O)c(-c2nc(-c3ccc(Cl)cc3)cs2)cc1C(=O)N1CCNCC1` [Compound 595], the IC50 against IDH1 R132H (setting [3]) and against IDH1 R132C (setting [4]) was over 20 µM each time.
Take `CCc1cccc(CC)c1-n1c(C=C(C)C)c(C(=O)N2CCNC(=O)C2c2ccccc2)cc(-c2nc(-c3ccc(Cl)cc3)cs2)c1=O` (stereo not shown) [Compound 499]: the half-maximal inhibitory concentration (IC50) was 0.3 to 1 µM against IDH1 R132H (setting [3]) and under 0.3 µM against IDH1 R132C (setting [4]).
For `CCOc1ccc(Cl)c(-n2c(C=C(C)C)c(C(=O)N3CCNCC3)cc(-c3nc(-c4ccc(Cl)cc4)cs3)c2=O)c1` [Compound 354], the IC50 at IDH1 R132H (setting [1]) and on IDH1 R132C (setting [2]) was under 0.3 µM throughout.
